In brackets after ≈: the same amount, converted by molar mass. Read-outs that look alike come from different tables or passages of the source. Marks after values point to notes of the source that are not given here.
Tests used:
[1] = test system: Plasmodium falciparum D6 Clone; experiment: Antimalarial testing, D6 clone; assay type: cell-based; conditions: Plasmodium falciparum; D6 Clone; read-out: Plasmodium falciparum IC50 Pf (D6)
Procedure: (§1) All organisms were obtained from the American Type Culture Collection (Manassas, Va.). Susceptibility testing was performed using a modified version of the NCCLS methods [a) National Committee for Clinical Laboratory Standards. 2000. Methods for dilution antimicrobial susceptibility tests for bacteria that grow aerobically. M7-A5. […] Approved standard M27-A. National Committee for Clinical Laboratory Standards, Wayne, Pa. c) National Committee for Clinical Laboratory Standards. 2000. Susceptibility testing of mycobacteria, nocardia, and other aerobic actinomycetes, 2nd ed. Tentative standard M24- T2. […] Briefly, samples (dissolved in DMSO) were serially diluted by using 0.9% saline and transferred in duplicate to 96-well microplates. Microbial inocula were prepared after comparison of the absorbance (at 630 nm) of cell suspensions to the 0.5 McFarland standard and dilution of the suspensions in broth (Sabouraud dextrose and cation-adjusted Mueller-Hinton broth [Difco] for the fungi and bacteria, respectively, and 5% Alamar blue [BioSource international] in Middlebrook 7H9 broth with oleic acid-albumin-dextrose-catalase enrichment for M intracellulare) to afford recommended inoculum sizes. Microbial inocula were added to the samples to achieve a final volume of 200 μl and final sample concentrations starting with 100 μg/ml. Growth, solvent, and medium controls were included on each test plate. […] Antimalarial and cytotoxicity testing were conducted in a similar manner as previously reported [a) Muhammad, 1.; Bedir, E.; Khan, S. I.; Tekwani, B. L.; Khan, I. A.; Takamatsu, S.; Pelletier, 1.; Walker, L. A. J Nat Prod.

[2] = test system: Plasmodium falciparum W2 Clone; experiment: Antimalarial testing, W2 clone; assay type: cell-based; conditions: Plasmodium falciparum; W2 Clone; NA = Not active up to 20 μg/ml; read-out: Plasmodium falciparum IC50 Pf (W2)
Procedure: (§2) Compounds were evaluated in vitro against a panel of microorganisms, including Candida albicans ATCC 90028 (Ca), C. krusei ATCC 6258 (Ck), Cryptococcus neoformans ATCC 90113 (Cn), Staphylococcus aureus ATCC 29213 (Sa), methicillin-resistant S. aureus ATCC 43300 (MRSA), Pseudomonas aeruginosa ATCC 27853 (Pa), Aspergilllus fumigatus ATCC 90906 (Aj), and Mycobacterium intracellulare ATCC 23068 (Mi) as previously reported [Guoyi, M.; Khan, S.; Jacob, M. R; Tekwani, B. L.; Li, Z.; Pasco, D. S.; Walker, L. A.; Khan, 1. A.; Antimicrob Agents Chemother, 2004, 48, 4450-4452]. All organisms were obtained from the American Type Culture Collection (Manassas, Va.). Susceptibility testing was performed using a modified version of the NCCLS methods [a) National Committee for Clinical Laboratory Standards. 2000. Methods for dilution antimicrobial susceptibility tests for bacteria that grow aerobically. M7-A5. National Committee for Clinical Laboratory Standards, Wayne, Pa. b) National Committee for Clinical Laboratory Standards, 1997, Reference method for broth dilution antifungal susceptibility testing of yeasts. Approved standard M27-A. National Committee for Clinical Laboratory Standards, Wayne, Pa. c) National Committee for Clinical Laboratory Standards. 2000. Susceptibility testing of mycobacteria, nocardia, and other aerobic actinomycetes, 2nd ed. Tentative standard M24- T2. National Committee for Clinical Laboratory Standards, Wayne, Pa.] for all organisms except for M intracellulare, for which the modified Alamar blue procedure described by Franzblau et al [1998. J Clin Microbiol, 36, 362-366] was followed. Briefly, samples (dissolved in DMSO) were serially diluted by using 0.9% saline and transferred in duplicate to 96-well microplates. Microbial inocula were prepared after comparison of the absorbance (at 630 nm) of cell suspensions to the 0.5 McFarland standard and dilution of the suspensions in broth (Sabouraud dextrose and cation-adjusted Mueller-Hinton broth [Difco] for the fungi and bacteria, respectively, and 5% Alamar blue [BioSource international] in Middlebrook 7H9 broth with oleic acid-albumin-dextrose-catalase enrichment for M intracellulare) to afford recommended inoculum sizes. Microbial inocula were added to the samples to achieve a final volume of 200 μl and final sample concentrations starting with 100 μg/ml. Growth, solvent, and medium controls were included on each test plate. The plates were read at either 630 nm or excitation and emission wavelengths of 544 and 590 nm (for Mi) prior to and after incubation. Percent growth was calculated and plotted with the concentration tested to afford the concentration that inhibits 50% of growth (IC50). Antimalarial and cytotoxicity testing were conducted in a similar manner as previously reported [a) Muhammad, 1.; Bedir, E.; Khan, S. I.; Tekwani, B. L.; Khan, I. A.; Takamatsu, S.; Pelletier, 1.; Walker, L. A. J Nat Prod. 2004, 67, 772-7. b) Muhammad, 1.; Dunbar, D. C.; Khan, S. 1.; Tekwani, B. L.; Bedir, E.; Takamatsu, S.; Ferreira, D, Walker L A., J Nat Prod. 2003, 66, 962-7].

Vero cells = experiment: Cytotoxicity to mammalian cells (Vero); assay type: cell-based
Procedure: as §1

[3] = test system: Cryptococcus neoformans ATCC 90113; experiment: Antifungal susceptibility testing (modified NCCLS), Cn; assay type: cell-based; conditions: for IC50 Cn: NA not defined in Table 1
Procedure: as §2

[4] = test system: Candida albicans ATCC 90028; experiment: Antifungal susceptibility testing (modified NCCLS), Ca; assay type: cell-based; conditions: for IC50 Ca: NA not defined in Table 1
Procedure: as §2

[5] = test system: Aspergillus fumigatus ATCC 90906; experiment: Antimicrobial susceptibility testing, Af; assay type: cell-based
Procedure: as §2, with “Antimalarial and cytotoxicity testing were conducted in a similar manner as previously reported [a) Muhammad, 1.; Bedir, E.; Khan, S. I.; Tekwani, B. L.; Khan, I. A.; Takamatsu, S.; Pelletier, 1.; Walker, L. A. J Nat Prod. 2004, 67, 772-7. b) Muhammad, 1.; Dunbar, D. C.; Khan, S. 1.; Tekwani, B. L.; Bedir, E.; Takamatsu, S.; Ferreira, D, Walker L A., J Nat Prod. 2003, 66, 962-7].” left out

C. krusei ATCC 6258 = experiment: Antimicrobial susceptibility testing, Ck; assay type: cell-based, Candida krusei; conditions: Candida krusei
Procedure: as §2, with “National Committee for Clinical Laboratory Standards, Wayne, Pa.] for all organisms except for M intracellulare, for which the modified Alamar blue procedure described by Franzblau et al [1998. J Clin Microbiol, 36, 362-366] was followed. Briefly, samples (dissolved in DMSO) were serially diluted by using 0.9% saline and transferred in duplicate to 96-well microplates.” left out, “Microbial inocula were added to the samples to achieve a final volume of 200 μl and final sample concentrations starting with 100 μg/ml. Growth, solvent, and medium controls were included on each test plate.” left out, “Percent growth was calculated and plotted with the concentration tested to afford the concentration that inhibits 50% of growth (IC50). Antimalarial and cytotoxicity testing were conducted in a similar manner as previously reported [a) Muhammad, 1.; Bedir, E.; Khan, S. I.; Tekwani, B. L.; Khan, I. A.; Takamatsu, S.; Pelletier, 1.; Walker, L. A. J Nat Prod. 2004, 67, 772-7. b) Muhammad, 1.; Dunbar, D. C.; Khan, S. 1.; Tekwani, B. L.; Bedir, E.; Takamatsu, S.; Ferreira, D, Walker L A., J Nat Prod. 2003, 66, 962-7].” left out

Compound: C[C@@H]1CC[C@H]2[C@@H](C)C(=O)O[C@@H]3O[C@@]4(C)CC[C@@H]1[C@]32OO4 [Artemisinin, reference compound]
- IC50 [1]: 0.0085 µg/mL (≈ 0.0301 µM)
- IC50 [2]: 0.0031 µg/mL (≈ 0.011 µM)
- Cytotoxicity (Vero) TC50 (Vero cells; African green monkey): >23.8 µg/mL

Compound: cryptolepine [Compound 2b, reference compound]
- IC50 Cn [3]: 15.6^d μg/ml
- IC50 Ca [4]: 0.8 to 180 µg/mL

Compound: Cn1c2ccccc2c2c1cc1ccccc1[n+]2CCCCCc1ccccc1.[Br-] [Compound 7b]
- IC50 Cn [3]: 4.3 µg/mL
- IC50 Ca [4]: 4.3 µg/mL

Compound: C[n+]1c(-c2ccccc2)ccc2ccccc21 [Compound 8a]
- IC50 ([3]; ATCC90113, read-out: IC50 Cn): 43 µg/mL
- IC50 ([4]; ATCC90028, read-out: IC50 Ca): 180 µg/mL
- melting point: 196 to 198 °C

Compound: c1ccc2c(c1)cc1[nH]c3ccccc3c1[n+]2CCCCC[n+]1c2ccccc2cc2[nH]c3ccccc3c21 (hydrate or solvate) [Compound 10]
- melting point: 256 to 258 °C

Compound: C[C@@H]1[C@H](O)[C@@H](C)/C=C/C=C/C=C/C=C/C=C/C=C/C=C/[C@H](O[C@@H]2O[C@H](C)[C@@H](O)[C@H](N)[C@@H]2O)C[C@@H]2O[C@](O)(C[C@@H](O)C[C@@H](O)[C@H](O)CC[C@@H](O)C[C@@H](O)CC(=O)O[C@H]1C)C[C@H](O)[C@H]2C(=O)O [Amphotericin B, reference compound]
- IC50 Cn [3]: 0.6 µg/mL (≈ 0.649 µM)
- IC50 Ca [4]: 0.1 µg/mL (≈ 0.108 µM)
- IC50 Af [5]: 0.31 µg/mL (≈ 0.335 µM)
- IC50 Ck (C. krusei ATCC 6258): 0.60 µg/mL (≈ 0.649 µM)
- Cytotoxicity (Vero) TC50 (Vero cells): 6.5 µg/mL
